In patent US20130072517A1 (Avanir Pharmaceuticals, Inc., priority 2002, published 2013):

Columns and labels:
Format in all cases: in vivo, human
[1] = tested on: ALS subjects with pseudobulbar affect; experiment: Clinical Study #4: CNS-LS score (primary efficacy); conditions: for Difference vs 30DM/30Q, mean difference in the CNS-LS reduction: controlling for baseline CNS-LS and study site
Description: This was a multicenter, randomized, double-blind, controlled, parallel-group study. All study drugs were self-administered orally every twelve hours for twenty-eight days. The study included a screening visit and three other clinic visits on Days 1, 15, and 29. Day 29 was the last day the subject was on study and could occur anywhere between the morning of Day 26 and the morning of Day 32.
Subjects with clinically diagnosed pseudobulbar affect were screened for general health within four weeks before entry into the study. All eligible subjects had attained a score of 13 or above on the Center for Neurologic Study-Lability Scale (CNS-LS) at the clinic visit on Day 1.
(§1) Diary cards were collected on Day 15 and at the time of study completion.
(§2) Subjects completed the CNS-LS questionnaire and visual analog scales assessing quality of life (QOL) and quality of relationships (QOR) every two weeks (Days 1, 15, and 29) during the treatment period. A clinical psychologist, or other approved clinician, administered the Hamilton Rating Scale for Depression (HRSD) at the Screening Visit and on Day 29. Safety was evaluated on Day 15 and Day 29 by examining adverse events, results of physical examinations, vital signs, clinical laboratory values, and resting electrocardiograms (ECGs). In addition to blood samples taken to provide clinical laboratory data, blood was also taken for pharmacokinetic analysis and CYP2D6 genotyping. Each subject completed a diary in which the number of episodes experienced, medications taken, and any adverse events were recorded daily.
(§3) The primary efficacy variable was the CNS-LS score. All efficacy variables involving a change were determined by the baseline score being subtracted from the mean of the non-missing scores on Days 15 and 29. The secondary efficacy variables were laughing/crying episodes, QOL scores, and QOR scores. […]
The CNS-LS questionnaire used to assess primary efficacy is a seven-item self-report measure that provides a score for total pseudobulbar affect; it required approximately five minutes for the subject to complete. The range of possible scores was 7 to 35. […] This questionnaire is the only instrument for the measurement of pseudobulbar affect validated for use with ALS subjects.
The primary efficacy analysis was the change from baseline in CNS-LS scores, adjusted for center and baseline CNS-LS score. The descriptive statistics for the ITT Population are in Table 29.
These distributions have not been adjusted for baseline scores or for study site. […] As prospectively specified in the protocol, the differences in mean improvement in CNS-LS scores, adjusted for center and baseline CNS-LS scores, were analyzed by using linear regression according to the ANCOVA method of Frison and Pocock.

[2] = tested on: ALS subjects with pseudobulbar affect; experiment: Clinical Study #4: laughing/crying episode counts (diary)
Method: as §1, §3
(§4) Secondary efficacy was assessed by using two, 10-cm visual analog scales (VAS). One scale asked subjects to rate how much uncontrollable laughter, tearfulness, or anger had affected the overall quality of their life during the past week, and one scale asked subjects to rate how much uncontrollable laughter, tearfulness, or anger had affected the quality of their relationships with others during the past week. Each scale required less than one minute to complete. The subjects recorded episodes of pathological laughing and crying in a diary daily.
An analysis of secondary efficacy data was conducted.

[3] = tested on: ALS subjects with pseudobulbar affect; experiment: Clinical Study #4: QOL and QOR visual analog scales
Method: as §2, §3, §4

[4] = ITT population, mean of scores on Day 15 and Day 29 minus baseline (Day 1) score
[5] = ITT population, diary, weighted by days in the study
[6] = proportional-variance (constant dispersion) negative binomial model
[7] = quadratic-variance (mean dispersion) negative binomial model
[8] = All Days: mean of scores on Days 15 and 29 minus Day 1

## COc1ccc2c(c1)[C@]13CCCCC1[C@H](C2)N(C)CC3 (single isomer, unassigned; (+)) [Dextromethorphan, (+)-3-methoxy-N-methylmorphinan]
[1]; Efficacy Evaluable Population (n = 101)
  Difference vs 30DM/30Q, mean difference in the CNS-LS reduction: −3.78
[1]; ITT Population (n = 125)
  Difference vs 30DM/30Q, mean difference in the CNS-LS reduction: −3.29
[1]; [4]
  Change in CNS-LS scores, Max: 2.0
  Change in CNS-LS scores, Mean: −5.12
  Change in CNS-LS scores, Median: −4.50
  Change in CNS-LS scores, Min: −25.00
[1]; Safety Population (n = 136)
  Difference vs 30DM/30Q, mean difference in the CNS-LS reduction: −3.09
[2]; ITT population, diary
  Weekly episode counts, Crying, Max: 21.00
  Weekly episode counts, Crying, Median: 0.70
  Weekly episode counts, Crying, Min: 0.00
  Weekly episode counts, Laughing, Max: 726.55
  Weekly episode counts, Laughing, Median: 2.50
  Weekly episode counts, Laughing, Min: 0.00
  Weekly episode counts, Laughing/Crying, Max: 726.55
  Weekly episode counts, Laughing/Crying, Median: 8.97
  Weekly episode counts, Laughing/Crying, Min: 0.00
[2]; [5]
  Weekly episode counts, Crying, Wtd. Mean: 4.30
  Weekly episode counts, Laughing, Wtd. Mean: 35.29
  Weekly episode counts, Laughing/Crying, Wtd. Mean: 39.58
[2]; Poisson regression model with adjustment for center
  Total episodes, times greater than in the 30DM/30Q group: 6.4
[2]; Poisson regression model, outlier omitted
  Total episodes, ratio to the 30DM/30Q group: 2.3
[2]; [6]
  Crying, estimated ratio relative to the named group: 2.0
  Laughing, estimated ratio relative to the named group: 1.4
  Total counts, estimated ratio relative to the named group: 1.7
[2]; proportional-variance negative binomial model, outlier subject omitted
  Laughing, estimated ratio relative to the named group: 1.5
[2]; [7]
  Crying rates, factor between 30DM/30Q and the named group: twice
  Laughing rates, factor between 30DM/30Q and the named group: 2.6
  Total episode rates, factor between 30DM/30Q and the named group: 2.6
[3]; [8]
  Change in VAS QOL score, Max: 27
  Change in VAS QOL score, Mean: −17.41
  Change in VAS QOL score, Median: −11.0
  Change in VAS QOL score, Min: −90.5
  Change in VAS QOR score, Max: 23.5
  Change in VAS QOR score, Mean: −9.98
  Change in VAS QOR score, Median: −4.50
  Change in VAS QOR score, Min: −71.0
[3]; Day 15 minus Day 1
  Change in VAS QOL score, Max: 55
  Change in VAS QOL score, Mean: −17.14
  Change in VAS QOL score, Median: −13
  Change in VAS QOL score, Min: −90
  Change in VAS QOR score, Max: 34
  Change in VAS QOR score, Mean: −11.75
  Change in VAS QOR score, Median: −7
  Change in VAS QOR score, Min: −71
[3]; Day 29 minus Day 1
  Change in VAS QOL score, Max: 27
  Change in VAS QOL score, Mean: −19.31
  Change in VAS QOL score, Median: −7
  Change in VAS QOL score, Min: −91
  Change in VAS QOR score, Max: 26
  Change in VAS QOR score, Mean: −10.38
  Change in VAS QOR score, Median: −3.0
  Change in VAS QOR score, Min: −71
